In patent US20250388574A1, “HETEROCYCLIC COMPOUNDS AS TRIGGERING RECEPTOR EXPRESSED ON MYELOID CELLS 2 AGONISTS AND METHODS OF USE” (AMGEN INC., priority 2020, published 2025):

Target: hTREM2 (Homo sapiens, UniProt Q9NZC2)
Assay: Phospho-Syk AlphaScreen/AlphaLISA assay in TREM2 and DAP12 overexpressing HEK293 cells (Example A1)
Type: cell-based
Design: expressed in transfected cells
Conditions: HEK293 cells; for EC50: read-out: hTREM2 EC50
Method in brief: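 Single-cell-cloned HEK293 stably overexpressing TREM2 and DAP12, plated 20,000 cells/well for 20 h, then exposed to compounds (1% DMSO) 45 min at room temperature. Lysates probed for phospho-Syk by AlphaLISA sandwich (anti-pSyk, biotinylated anti-Syk); signal normalized to percent of control (100 nM anti-TREM2 antibody vs isotype) and fitted by 4-parameter logistic.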

hTREM2, sequence (Q9NZC2 19-230): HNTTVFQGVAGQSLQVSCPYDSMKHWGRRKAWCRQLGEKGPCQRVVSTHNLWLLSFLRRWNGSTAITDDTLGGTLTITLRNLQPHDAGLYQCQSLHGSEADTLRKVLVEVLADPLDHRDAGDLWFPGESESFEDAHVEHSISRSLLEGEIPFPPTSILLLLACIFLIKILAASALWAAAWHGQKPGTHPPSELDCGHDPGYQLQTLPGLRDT
hTREM2, sequence (O43914 22-113 partner): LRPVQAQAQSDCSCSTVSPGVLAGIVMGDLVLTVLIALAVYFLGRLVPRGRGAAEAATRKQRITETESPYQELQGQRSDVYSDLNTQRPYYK

Row | Emax | EC50 [µM] | Structure (SMILES)
1 | ++++ (Emax>300) | 0.05 to 0.5 | Cc1nc2cc(N3CCO[C@H](c4noc(C5CC5)n4)C3)nc(-c3ccc(Cl)cc3F)c2c(=O)n1C [Example 201, (S)-5-(4-chloro-2-fluorophenyl)-7-(2-(5-cyclopropyl-1,2,4-oxadiazol-3-yl)morpholino)-2,3-dimethylpyrido[4,3-d]pyrimidin-4(3H)-one]
2 | +++ (Emax>200 and ≤300) | 3 to 100 | Cc1nc2cc(N3CC[C@H](c4cnn(C)c4)C3)nc(-c3ccc(Cl)cc3F)c2c(=O)n1C [Example 202, (R)-5-(4-chloro-2-fluorophenyl)-2,3-dimethyl-7-(3-(1-methyl-1H-pyrazol-4-yl)pyrrolidin-1-yl)pyrido[4,3-d]pyrimidin-4(3H)-one]
3 | + (Emax>45 and ≤100) | 3 to 100 | Cc1nc2cc(N3CC[C@H](n4cccn4)C3)nc(-c3ccc(Cl)cc3F)c2c(=O)n1C [Example 203, (S)-7-(3-(1H-pyrazol-1-yl)pyrrolidin-1-yl)-5-(4-chloro-2-fluorophenyl)-2,3-dimethylpyrido[4,3-d]pyrimidin-4(3H)-one]
4 | + (Emax>45 and ≤100) | 3 to 100 | Cc1cnn([C@H]2CCN(c3cc4nc(C)n(C)c(=O)c4c(-c4ccc(Cl)cc4F)n3)C2)c1 [Example 204, (S)-5-(4-chloro-2-fluorophenyl)-2,3-dimethyl-7-(3-(4-methyl-1H-pyrazol-1-yl)pyrrolidin-1-yl)pyrido[4,3-d]pyrimidin-4(3H)-one]
5 | +++ (Emax>200 and ≤300) | 3 to 100 | Cc1nc2cc(N3CC[C@H](c4ccccn4)C3)nc(-c3ccc(Cl)cc3F)c2c(=O)n1C [Example 205, (S)-5-(4-chloro-2-fluorophenyl)-2,3-dimethyl-7-(3-(pyridin-2-yl)pyrrolidin-1-yl)pyrido[4,3-d]pyrimidin-4(3H)-one]
6 | ++ (Emax>100 and ≤200) | 3 to 100 | Cc1nc2cc(N3CC[C@H](c4ccccc4)C3)nc(-c3ccc(Cl)cc3F)c2c(=O)n1C [Example 206, (R)-5-(4-chloro-2-fluorophenyl)-2,3-dimethyl-7-(3-phenylpyrrolidin-1-yl)pyrido[4,3-d]pyrimidin-4(3H)-one]
7 | ++ (Emax>100 and ≤200) | 3 to 100 | Cc1nc2cc(N3CC[C@H](C4CC4)C3)nc(-c3ccc(Cl)cc3F)c2c(=O)n1C [Example 207, (R)-5-(4-chloro-2-fluorophenyl)-7-(3-cyclopropylpyrrolidin-1-yl)-2,3-dimethylpyrido[4,3-d]pyrimidin-4(3H)-one]
8 | ++ (Emax>100 and ≤200) | 3 to 100 | Cc1nc2cc(N3CC[C@H](N4CCOCC4)C3)nc(-c3ccc(Cl)cc3F)c2c(=O)n1C [Example 208, (S)-5-(4-chloro-2-fluorophenyl)-2,3-dimethyl-7-(3-morpholinopyrrolidin-1-yl)pyrido[4,3-d]pyrimidin-4(3H)-one]
9 | +++ (Emax>200 and ≤300) | 0.5 to 3 | Cc1nc2cc(N3CCO[C@H](c4ccccn4)C3)nc(-c3ccc(Cl)cc3F)c2c(=O)n1C [Example 209, (S)-5-(4-chloro-2-fluorophenyl)-2,3-dimethyl-7-(2-(pyridin-2-yl)morpholino)pyrido[4,3-d]pyrimidin-4(3H)-one]
10 | ++++ (Emax>300) | 0.05 to 0.5 | Cc1nc2cc(N3CCO[C@H](c4cccnc4)C3)nc(-c3ccc(Cl)cc3F)c2c(=O)n1C [Example 210, (R)-5-(4-chloro-2-fluorophenyl)-2,3-dimethyl-7-(2-(pyridin-3-yl)morpholino)pyrido[4,3-d]pyrimidin-4(3H)-one]
11 | +++ (Emax>200 and ≤300) | 3 to 100 | Cc1nc2cc(N3CCO[C@H](c4cnn(C)c4)C3)nc(-c3ccc(Cl)cn3)c2c(=O)n1C [Example 211, (R)-5-(5-chloropyridin-2-yl)-2,3-dimethyl-7-(2-(1-methyl-1H-pyrazol-4-yl)morpholino)pyrido[4,3-d]pyrimidin-4(3H)-one]
